Measured values reported in BigSolDB 2.1.

CCOC(=O)C1=C(C)NC(C)=C(C(=O)OCC)C1
solubility (mole fraction)
Details | in 2-butanone | in 2-pentanone | in acetone | in acetonitrile | in ethanol | in ethyl acetate | in ethyl formate | in isobutanol
272.15 K | 0.00182 | 0.00169 | 0.00112 | 0.000235 | 0.000414 | 0.00135 | 0.00082 | 0.000707
277.95 K | – | – | – | – | 0.000587 | – | – | 0.00106
278.15 K | 0.00274 | 0.00255 | 0.00165 | 0.000356 | – | 0.00195 | 0.00117 | –
283.15 K | 0.00382 | 0.00353 | 0.00225 | 0.000495 | 0.000795 | 0.00261 | 0.00155 | 0.00151
288.15 K | 0.00525 | 0.00485 | 0.00304 | 0.000687 | 0.00105 | 0.00345 | 0.00204 | 0.00209
293.05 K | – | – | – | – | 0.00137 | – | – | 0.00283
293.15 K | 0.00717 | 0.00657 | 0.00407 | 0.000931 | – | 0.00453 | 0.00266 | –
298.15 K | 0.00965 | 0.00881 | 0.0054 | 0.00126 | 0.00179 | 0.00588 | 0.00343 | 0.00386
303.15 K | – | – | – | – | 0.00232 | – | – | 0.00517
303.35 K | 0.013 | 0.0119 | 0.00718 | 0.0017 | – | 0.00767 | 0.00444 | –
308.05 K | – | – | – | – | 0.00294 | – | – | 0.00684
308.25 K | 0.0171 | 0.0155 | 0.00926 | 0.00224 | – | 0.00977 | 0.00562 | –
312.35 K | – | – | – | – | 0.00362 | – | – | 0.00863
313.15 K | 0.0222 | 0.0202 | 0.0119 | 0.00291 | – | 0.0123 | 0.00703 | –
318.15 K | 0.0288 | 0.026 | 0.0152 | 0.0038 | 0.00472 | 0.0155 | 0.00881 | 0.0117
323.15 K | – | – | – | – | 0.0059 | – | – | 0.0152
323.65 K | 0.038 | 0.0345 | 0.02 | 0.00503 | – | 0.0198 | 0.0112 | –
